In patent US12180612B2, “Plant tissue-derived nanofibres” (priority 2018, dated 2024):
Where “and” joins values, the source holds several entries; their conditions need not be identical. Equal entries are not always repeated. Entries after “also recorded” stand apart in the source; their conditions may differ. Where two headings read alike, the source gives them in different places.

Key:
[1] = tested on: normal human intestinal CRL 1790 cells; assay: Uptake of calcein and calcein-loaded nanofibres, confocal microscopy; assay type: cell-based
Protocol: (§1) Calcein uptake into HT 29, CRL 1790 cells: Uptake of calcein-loaded nanoparticles into mammalian cells. Calcein by itself is impermeable through membrane, and may be taken up at a low level by endocytosis. Ethanol-bleached cherry was homogenized in water, also containing 1 mg/g fresh weight equivalent of calcein, and the supernatant dialyzed against water. Calcein complexed to nanofilaments is retained within the dialysis bag, and used for uptake measurements by confocal microscopy.
(§2) Uptake of complexed molecules by nanofibres: Nanofibres are extremely long (micrometers in length, ˜5 nm in diameter; see FIG. 37, for example), and their ability to cross the plasma membrane was investigated. In this experiment, the ability of nanofibres to form natural complexes with a membrane impermeable fluorescent dye, calcein, was investigated. Nanofibres where prepared from ethanol-bleached cherry by procedures described herein above. […] HT-29 and CRL-1790 cells were incubated in the presence of calcein alone, and calcein-complexed nanofibres (of equal fluorescence intensity). Uptake of calcein and calcein complexed with nanofibres were monitored by confocal microscopy. […] Similar experiments were also conducted with nanoparticles, however, because of quenching of fluorescence by polyphenols, successful acquisition of images was not achieved.

HT 29 cells = assay: as above; assay type: cell-based, human
Protocol: as §1, §2

[2] = tested on: Human colorectal MDR cancer Cells (CRL 2158); conditions: B-Live/Dead cell analysis, paclitaxel 32 nM, 24 h, without or with nanofibre 4 μg/ml
Protocol: (§3) Live-Dead cell analysis: Cells were grown as confluent and subconfluent monolayers for 24 h as described previously (Hakimuddin et al., 2004). Cells were treated with paclitaxel, or paclitaxel along with nanofibers for 12 h (Appropriate amounts of paclitaxel and nanofibers were mixed in 5% DMSO in water, and added to the cells). Cells were washed with phosphate buffer and cell viability tests performed on CRL 1790, CRL 2158 and HT 29 cells using a live/dead cell viability kit (Invitrogen, Mississauga, Ontario) as described by the manufacturer. Live dead cells were visualized under a confocal microscope. The assay kit contains two fluorescent dyes, calcein AM ester (Ex 494 nm, Em 517 nm) which specifically enters live cells, gets de-esterified and stains the live cells green. The dying cells as well as dead cells are membrane compromised (leaky plasma membrane) and allows the entry of ethidium homodimer Ex 517 nm/Em 617), which stains the nucleus red.
(§4) Differentiating cytotoxicity by Live-Dead cell analysis: Further studies were performed to investigate delivery of paclitaxel using nanofibres into various cell lines. To further evaluate the efficiency of nanofibres in enhancing cytotoxicity of paclitaxel, live-dead cell analysis was conducted. Normal cells (CRL 1790), cancer cells (HT-29) and the MDR cells (CRL 2158) were cultured and exposed to paclitaxel alone, and paclitaxel along with nanofibres. The cells were cultured for 24 h at which time point, paclitaxel and the nanofibres were added to the culture. Live dead cell analysis was performed 24 h after exposure to the drug. […] The assay kit (Invitrogen) contains two fluorescent dyes, calcein AM ester (Ex 494 nm, Em 517 nm) which specifically enters live cells, gets de-esterified and stains the live cells green. The dying cells as well as dead cells are membrane compromised (leaky plasma membrane) and allows the entry of ethidium homodimer (Ex 517 nm/Em 617), which stains the nucleus red. […] Panels B, C represent control cells visualized at 617 nm (red, dead cells) and at 517 nm (green, live cells), respectively. Panel A is a composite image of untreated cells. Panels E, F represent the images of cells treated with paclitaxel (32 nM) recorded at the two wavelengths 617 and 517 nm respectively. Panel D is a composite image. Panels H and I show the cells treated with paclitaxel+nanofibres (32 nM+4 μg/ml nanofibers, the fibers and appropriate amount of paclitaxel were mixed in 5% DMSO and added to the culture medium of cells and allowed to incubate for 12 h). Panel G is a composite of the red and green images.

[3] = tested on: Normal Human Intestinal Cells (CRL 1790); conditions: B-Live/Dead cell analysis; paclitaxel 32 nM, 24 h, without or with nanofibre 4 μg/ml
Protocol: as §3, §4

[4] = tested on: human colorectal cancer cells (HT 29); conditions: B-Live/Dead cell analysis; paclitaxel 32 nM, 24 h, without or with nanofibre 4 μg/ml
Protocol: as §3, §4

[5] = tested on: multidrug resistant human colorectal cancer cells (CRL 2158)
Protocol: (§5) Cell culture: Three cell lines derived from colon, CRL 1790, a normal cell line, HT 29, a colorectal cancer cell line and CRL 2158 a multidrug resistant colorectal cancer cell line (ATCC) were used to evaluate the cytotoxicity of nanocomplexes. Cells were cultured in media specifically recommended for each cell line. For HT 29, the medium used was DMEM (Dulbecco's modified Eagle's medium, Sigma), for CRL 2158, the medium used was RPMI, and for CRL 1790, the medium used was EMEM (Eagle's minimum essential medium; Cedarlane Labs, Burlington, ON, Canada). All the media were supplemented with FBS, Penicillin/streptomycin, and L-glutamine. At confluency (˜80%), cells were washed with 1×PBS twice. Cells were incubated with trypsin-EDTA for 5 minutes and then diluted in respective media supplemented with 10% FBS before staining with trypan blue (50 μl of cells and 450 μl of trypan blue) and counting viable cells to evaluate cytotoxicity. The cytotoxicity was determined by trypan blue exclusion by living cells and blue staining of dead cells. The number of dead cells in a unit area was counted and expressed as a percentage of total cells in the area.
(§6) Cytotoxicity of nanoparticles and nanofibres against cancer cells: These studies evaluate the cytotoxic effects of the purified nanoparticles and the nanofibres isolated from sour cherry using normal human colonic epithelial cells (CRL 1790), human colorectal cancer cells (HT 29) and multidrug resistant human colorectal cancer cells (CRL 2158) in the presence or absence of paclitaxel. Nanoparticles were added as polyphenol equivalent aliquots, while the nanofibres were added on a weight basis. […]

[6] = tested on: normal human colonic epithelial cells (CRL 1790)
Protocol: as §5, §6

[7] = tested on: human colorectal cancer cells (HT 29)
Protocol: as §5, §6

[8] = DPPH radical scavenging capacity of food powder; assay type: biochemical; conditions: positive control at the same concentrations as polyphenols
Protocol: The powder was dissolved in water and the antioxidant capacity of the solution was determined by estimating the DPPH Radical scavenging capacity of solution as polyphenol equivalent (estimated by Folin-Ciocalteau reagent) in micrograms. A 0.1 mM Folin-Ciocateau reagent was prepared in methanol, and the food powder solution was added in the specified amounts. The antioxidants were allowed to react with 1 ml of DPPH reagent, and the absorbance (purple, 517 nm absorption) was monitored. The decline in 517 nm absorbance was noted and expressed as % quenching in comparison to a control without polyphenol. […] Each point at a concentration represents an individual sample of food powder prepared;
The powder was dissolved in water and the antioxidant capacity of the solution was determined by estimating the DPPH Radical scavenging capacity of solution as polyphenol equivalent (estmated by Folin-Ciocalteau reagent) in micrograms. A 0.1 mM Folin-Ciocateau reagent was prepared in methanol, and the food powder solution was added in the specified amounts. The antioxidants were allowed to react with 1 ml of DPPH reagent, and the absorbance (purple, 517 nm absorption) was monitored. The decline in 517 nm absorbance was noted and expressed as % quenching in comparison to a control without polyphenol. […] Each point at a concentration represents an individual sample of food powder prepared.

For O=C(O)CN(CC(=O)O)Cc1cc2c(cc1O)Oc1cc(O)c(CN(CC(=O)O)CC(=O)O)cc1C21OC(=O)c2ccccc21 [Calcein], the “uptake into cells (in words)” value [1] was “comparatively very low” and the “uptake into cells (in words)” value (HT 29 cells) was “comparatively very low; also recorded: Far reduced uptake”.
With CC(=O)O[C@H]1C(=O)[C@@]2(C)[C@H]([C@H](OC(=O)c3ccccc3)[C@]3(O)C[C@H](OC(=O)[C@H](O)[C@@H](NC(=O)c4ccccc4)c4ccccc4)C(C)=C1C3(C)C)[C@]1(OC(C)=O)CO[C@@H]1C[C@@H]2O [Paclitaxel] the “% Living cells Colorectal MDR cell line CRL 2158” value [2] was 46.00%, the “% Living cells Colorectal MDR cell line CRL 2158” value ([2]; listed as paclitaxel) was about 50% and the “% Living cells Normal Cell Line CRL 1790” value [3] was 97.6%. The “% Living cells Colorectal Cancer Cell Line HT 29” value [4] was 10.78%, the “% Living cells Colorectal MDR cell line CRL 2158” value ([5]; Paclitaxel 2 nM) was 90.86% and the “% Living cells Colorectal MDR cell line CRL 2158” value ([5]; Paclitaxel 8 nM) was 86.17%. The “% Living cells Colorectal MDR cell line CRL 2158” value ([5]; Paclitaxel 32 nM) was 83.76%, the “% Living cells Normal Cell Line CRL 1790” value ([6]; Paclitaxel 2 nM) was 86.66% and the “% Living cells Normal Cell Line CRL 1790” value ([6]; Paclitaxel 8 nM) was 74.28%. For the same compound, the “% Living cells Normal Cell Line CRL 1790” value ([6]; Paclitaxel 32 nM) was 66.79%, the “% Living cells Colorectal Cancer Cell Line HT 29” value ([7]; Paclitaxel 2 nM) was 70.93% and the “% Living cells Colorectal Cancer Cell Line HT 29” value ([7]; Paclitaxel 8 nM) was 59.11%. For the same compound, the “% Living cells Colorectal Cancer Cell Line HT 29” value ([7]; Paclitaxel 32 nM) was 50% and 48.27%.
Cc1c(C)c2c(c(C)c1O)CCC(C)(C(=O)O)O2 (stereo not shown) [Trolox] showed a TEAC value [8] of 1.
